Laboratory results: patent publication US20250127863A1, “ANTIMICROBIAL PEPTIDE FOR ONYCHOMYCOSIS” (CBMR SCIENTIFIC NANOSCIENCE B.V., priority 2019, published 2025)
No end group written: not given here.

Columns and labels:
Test in all cases: MIC90 growth inhibition
Type in all cases: cell-based
Settings in all cases: RPMI 1640 one-fourth strength
[1] = test system: Escherichia coli
Procedure: (§1) The minimum inhibitory concentration (MIC) value is defined as the lowest sample concentration that inhibited growth. In the Examples, the MIC90 value is presented, which MIC90 values are determined according to established methods known to the person with the skills in the relevant art. Experiments; 1×10E5 CFU of various strains/ml were incubated for 24-48 h at 37° C. in 4× diluted medium of RPMI 1640 with the indicated concentrations of antimicrobial peptide hLF(1-11) [SEQ ID NO: 3]. As controls various strains cells were incubated for 24-48 h at 37° C. with no agent (antimicrobial peptide), and subsequently, growth of the microbial organism (e.g. yeast, bacterium) was monitored by using spectrophotometry with a spectrophotometer at 620 nm. […] ND=Not done. Representative single assay data are listed rather than a range, for clarity reasons and for ease of comparison of peptide efficacy. The MIC was calculated as the lowest antibiotic (antimicrobial peptide) concentration at which growth of the assessed yeast or bacterium (microbe) was inhibited (inhibitory concentration IC90).

[2] = test system: Aspergillus terreus
Procedure: as §1

[3] = test system: Penicillium vermiculatum
Procedure: as §1

[4] = test system: Aspergillus fumigatus
Procedure: as §1

[5] = test system: Meyerozyma spp.
Procedure: as §1

[6] = test system: Paracoccidioides brasiliensis
Procedure: as §1

[7] = test system: Trichophyton interdigitale
Procedure: as §1

[8] = test system: Cryptococcus neoformans
Procedure: as §1

[9] = test system: Penicillium digitatum
Procedure: as §1

[10] = test system: Streptococcus caseii
Procedure: as §1

[11] = test system: Streptococcus mitis
Procedure: as §1

[12] = test system: Cryptococcus albidus
Procedure: as §1

[13] = test system: Helicobacter pylori
Procedure: as §1

[14] = test system: Candida spp.
Procedure: as §1

[15] = test system: Malassezia furfur spp.
Procedure: as §1

[16] = test system: Botrytis cinerea
Procedure: as §1

[17] = test system: Trichophyton mentagrophytes
Procedure: as §1

[18] = test system: Phialophora verrucosa
Procedure: as §1

[19] = test system: Microsporum canis
Procedure: as §1

[20] = test system: Nannizia gypsea
Procedure: as §1

[21] = test system: Staphylococcus aureus 29213
Procedure: as §1

[22] = test system: Saccharomyces cerivisiae ATCC 2602
Procedure: as §1

[23] = test system: Enterococcus faecalis
Procedure: as §1

[24] = test system: Trichosporon cutaneum
Procedure: as §1

[25] = test system: Staphylococcus aureus 10649
Procedure: as §1

[26] = test system: Mycobacterium avium
Procedure: as §1

[27] = test system: Malassezia furfur CBS-9372
Procedure: as §1

[28] = test system: Sporothrix schenckii
Procedure: as §1

[29] = test system: Altematria spp.
Procedure: as §1

[30] = test system: Trichophyton violaceum
Procedure: as §1

[31] = test system: Malassezia furfur CBS 7019
Procedure: as §1

[32] = test system: Entrobacter cloacae
Procedure: as §1

[33] = test system: Staphylococcus epidermidis
Procedure: as §1

[34] = test system: Penicillium italicum
Procedure: as §1

[35] = test system: Nannizzia incurvata
Procedure: as §1

[36] = test system: Aspergillus versicolor
Procedure: as §1

[37] = test system: Saccharomyces cerivisiae ATCC 2601
Procedure: as §1

[38] = test system: Microsporum gypseum
Procedure: as §1

[39] = test system: Malassezia pachydermatis CBS 1883
Procedure: as §1

[40] = test system: Aspergillus nidulans
Procedure: as §1

[41] = test system: Streptocococcus mitis 032
Procedure: as §1

[42] = test system: Pichia membramfaciens
Procedure: as §1

[43] = test system: Malassezia pachydermatis CBS-1879
Procedure: as §1

[44] = test system: Malassezia globosa
Procedure: as §1

[45] = test system: Streptococcus mutans
Procedure: as §1

In the case of “GRRRRSVQWCA [hLF1-11, Gly Arg Arg Arg Arg Ser Val Gln Trp Cys Ala]”, the “Inhibitory concentration MIC (MIC90)” value [1] is reported as “MIC = 6.3 μg/ml”, the “Inhibitory concentration MIC (MIC90)” value [2] is reported as “MIC = 2.5-12.5 μg/ml” and the “Inhibitory concentration MIC (MIC90)” value [3] is reported as “MIC = 45 μg/ml”. The “Inhibitory concentration MIC (MIC90)” value [4] was “MIC = 2.5-25 μg/ml”, the “Inhibitory concentration MIC (MIC90)” value [5] was “MIC = 25-50 μg/mL” and the “Inhibitory concentration MIC (MIC90)” value [6] was “MIC = 0.63-1.25 μg/ml”. The “Inhibitory concentration MIC (MIC90)” value [7] was “MIC = 6.3-45 μg/ml”, the “Inhibitory concentration MIC (MIC90)” value [8] was “MIC = 12.5-50 μg/mL” and the “Inhibitory concentration MIC (MIC90)” value [9] was “MIC = 8 μM”. For the same sequence, the “Inhibitory concentration MIC (MIC90)” value [10] was “MIC = 3.1 μg/ml”, the “Inhibitory concentration MIC (MIC90)” value [11] was “MIC = 3.1 μg/ml” and the “Inhibitory concentration MIC (MIC90)” value [12] was “MIC = 25 μg/ml”. The “Inhibitory concentration MIC (MIC90)” value [13] was “MIC = 12.5-50 μg/ml”, the “Inhibitory concentration MIC (MIC90)” value [14] was “MIC = 12.5-50 μg/ml” and the “Inhibitory concentration MIC (MIC90)” value [15] was “MIC = 12.5-50 μg/mL”. The “Inhibitory concentration MIC (MIC90)” value [16] was “MIC = 16 μM”, the “Inhibitory concentration MIC (MIC90)” value [17] was “MIC = 6.3-45 μg/ml” and the “Inhibitory concentration MIC (MIC90)” value [18] was “MIC = 5-10 μg/ml”. The “Inhibitory concentration MIC (MIC90)” value [19] was “MIC = 40 μg/ml”, the “Inhibitory concentration MIC (MIC90)” value [20] was “MIC = 30 μg/ml” and the “Inhibitory concentration MIC (MIC90)” value [21] was “MIC = 3.1 μg/ml”. For the same sequence, the “Inhibitory concentration MIC (MIC90)” value [22] was “MIC = 25 μg/ml”, the “Inhibitory concentration MIC (MIC90)” value [23] was “MIC = 6.3 μg/ml” and the “Inhibitory concentration MIC (MIC90)” value [24] was “MIC = 1.25-18 μg/ml”. The “Inhibitory concentration MIC (MIC90)” value [25] was “MIC = 1.6 μg/ml”, the “Inhibitory concentration MIC (MIC90)” value [26] was “MIC = 50 μg/ml” and the “Inhibitory concentration MIC (MIC90)” value [27] was “MIC = 50 μg/ml”. For the same sequence, the “Inhibitory concentration MIC (MIC90)” value [28] was “MIC = 2-10 μg/ml”, the “Inhibitory concentration MIC (MIC90)” value [29] was “MIC = 16 μM” and the “Inhibitory concentration MIC (MIC90)” value [30] was “MIC = 40 μg/ml”. The “Inhibitory concentration MIC (MIC90)” value [31] was “MIC = 12.5-50 μg/mL”, the “Inhibitory concentration MIC (MIC90)” value [32] was “MIC = 6.3 μg/ml” and the “Inhibitory concentration MIC (MIC90)” value [33] was “MIC = 3.1 μg/ml”. The “Inhibitory concentration MIC (MIC90)” value [34] was “MIC = 8 μM”, the “Inhibitory concentration MIC (MIC90)” value [35] was “MIC = 18 μg/ml” and the “Inhibitory concentration MIC (MIC90)” value [36] was “MIC = 10 μg/ml”. For the same sequence, the “Inhibitory concentration MIC (MIC90)” value [37] was “MIC = 25 μg/mL”, the “Inhibitory concentration MIC (MIC90)” value [38] was “MIC = 20-40 μg/ml” and the “Inhibitory concentration MIC (MIC90)” value [39] was “MIC = 25-50 μg/mL”. For the same sequence, the “Inhibitory concentration MIC (MIC90)” value [40] was “MIC = 2.5-12.5 μg/ml”, the “Inhibitory concentration MIC (MIC90)” value [41] was “MIC = 6.3 μg/ml” and the “Inhibitory concentration MIC (MIC90)” value [42] was “MIC = 45 μg/ml”. For the same sequence, the “Inhibitory concentration MIC (MIC90)” value [43] was “MIC = 50 μg/ml”, the “Inhibitory concentration MIC (MIC90)” value [44] was “MIC = 12.5-50 μg/mL” and the “Inhibitory concentration MIC (MIC90)” value [45] was “MIC = 3.1 μg/ml”.
